The source of these data is ChEMBL document CHEMBL1147684, “Nitrogen-bridged substituted 8-arylquinolines as potent PDE IV inhibitors” (Bioorg Med Chem Lett, 2006).

Data set [1] addresses T1, 3',5'-cyclic-AMP phosphodiesterase 4B (Homo sapiens, UniProt Q07343). The experiment in a line: Inhibition of human GST-PDE4B.
In data set [2] the target is 3',5'-cyclic-AMP phosphodiesterase 4A (Homo sapiens, UniProt P27815). The experiment in a line: Inhibition of human GST-PDE4A.
Data set [3] deals with 3',5'-cyclic-AMP phosphodiesterase 4C (Homo sapiens, UniProt Q08493). The experiment in a line: Inhibition of human GST-PDE4C.
For data set [4], the target named is 3',5'-cyclic-AMP phosphodiesterase 4D (Homo sapiens, UniProt Q08499). The experiment in a line: Inhibition of human GST-PDE4D.
Data set [5] concerns the target T1, 3',5'-cyclic-AMP phosphodiesterase 4B. The experiment in a line: Ability to block TNFalpha release through inhibition of PDE4 in LPS-stimulated human whole blood. The format is functional, tissue-based.
A short description of data set [6]: Half life in iv dosed squirrel monkey. The class given is ADME, organism-based, Saimiri sciureus. Particulars: in vivo.
Data set [7] can be described thus: Oral bioavailability in rat. The format is ADME, organism-based. Conditions: in vivo.
Data set [8] can be described thus: Half life in iv dosed rat. The format is ADME, organism-based. Conditions: in vivo.
Data set [9] can be described thus: Cmax in rat. The class given is ADME, organism-based. Conditions: in vivo.
Data set [10] can be described thus: Oral bioavailability in squirrel monkey. Conditions: in vivo. The format is ADME, organism-based, Saimiri sciureus.
For data set [11], the system named is Cavia porcellus. The experiment in a line: Inhibition of ovalbumin-induced bronchoconstriction in guinea pig at 30 ug/kg, ip. The class given is functional.
Data set [12] is described as follows: Cmax in squirrel monkey. The class given is ADME, organism-based, Saimiri sciureus. Conditions: in vivo.
Data set [13] has as its system Cavia porcellus. Kind of data set: Inhibition of ovalbumin-induced bronchoconstriction in guinea pig at 1 mg/kg, ip. The class given is functional. Conditions: route intraperitoneal.

Broadly, the IC50 is the concentration needed to halve the response being measured. The term half-life denotes how long it takes for the measured level to halve. Broadly, the bioavailability is dose-corrected exposure relative to a reference, in per cent. As usually defined, the Cmax is the highest concentration seen after dosing. A word on the inhibition in vivo: it is the drop in the measured response relative to a control, in per cent.

T1 sequence (Q07343 whole entry): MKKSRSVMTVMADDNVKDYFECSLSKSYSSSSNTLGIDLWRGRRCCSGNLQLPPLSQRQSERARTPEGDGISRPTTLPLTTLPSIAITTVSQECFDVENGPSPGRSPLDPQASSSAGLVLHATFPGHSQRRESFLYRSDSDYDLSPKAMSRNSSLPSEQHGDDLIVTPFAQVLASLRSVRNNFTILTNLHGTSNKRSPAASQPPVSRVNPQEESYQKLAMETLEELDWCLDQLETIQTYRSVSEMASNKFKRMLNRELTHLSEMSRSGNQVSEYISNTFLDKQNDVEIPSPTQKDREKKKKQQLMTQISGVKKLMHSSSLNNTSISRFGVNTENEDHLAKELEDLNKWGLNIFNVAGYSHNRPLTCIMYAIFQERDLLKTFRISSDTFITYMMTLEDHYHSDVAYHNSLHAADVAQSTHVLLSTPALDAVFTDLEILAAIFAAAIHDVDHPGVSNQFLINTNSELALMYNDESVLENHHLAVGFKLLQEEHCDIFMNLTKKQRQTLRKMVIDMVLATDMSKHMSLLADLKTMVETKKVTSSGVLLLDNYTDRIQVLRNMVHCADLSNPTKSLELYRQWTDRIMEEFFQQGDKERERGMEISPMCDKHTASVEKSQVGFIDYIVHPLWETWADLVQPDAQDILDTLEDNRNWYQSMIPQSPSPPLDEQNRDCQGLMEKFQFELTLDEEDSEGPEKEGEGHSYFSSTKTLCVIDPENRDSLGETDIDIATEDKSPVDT
Sequence of 3',5'-cyclic-AMP phosphodiesterase 4D (Q08499 whole entry): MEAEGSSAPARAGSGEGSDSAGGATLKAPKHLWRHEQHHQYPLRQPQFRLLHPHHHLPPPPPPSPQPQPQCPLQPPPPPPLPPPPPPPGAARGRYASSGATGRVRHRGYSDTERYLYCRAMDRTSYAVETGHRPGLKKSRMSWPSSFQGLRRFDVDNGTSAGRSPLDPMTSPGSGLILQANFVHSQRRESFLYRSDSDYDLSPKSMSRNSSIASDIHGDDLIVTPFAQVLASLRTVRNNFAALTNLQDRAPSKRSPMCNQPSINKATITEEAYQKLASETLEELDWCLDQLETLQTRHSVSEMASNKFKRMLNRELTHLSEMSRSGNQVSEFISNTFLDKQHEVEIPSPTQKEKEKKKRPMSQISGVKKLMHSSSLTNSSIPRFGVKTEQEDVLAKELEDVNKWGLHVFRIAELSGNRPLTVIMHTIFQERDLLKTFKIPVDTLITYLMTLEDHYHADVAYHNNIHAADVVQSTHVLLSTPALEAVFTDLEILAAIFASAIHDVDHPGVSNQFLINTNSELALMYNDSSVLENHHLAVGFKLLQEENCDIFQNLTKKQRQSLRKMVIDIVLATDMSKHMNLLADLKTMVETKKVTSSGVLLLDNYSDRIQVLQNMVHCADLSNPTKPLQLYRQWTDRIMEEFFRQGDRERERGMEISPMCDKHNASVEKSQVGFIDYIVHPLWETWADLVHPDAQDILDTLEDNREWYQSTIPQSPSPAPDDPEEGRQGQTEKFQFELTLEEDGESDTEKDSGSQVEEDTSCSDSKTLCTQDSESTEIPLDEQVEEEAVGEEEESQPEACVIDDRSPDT
Sequence of 3',5'-cyclic-AMP phosphodiesterase 4C (Q08493 whole entry): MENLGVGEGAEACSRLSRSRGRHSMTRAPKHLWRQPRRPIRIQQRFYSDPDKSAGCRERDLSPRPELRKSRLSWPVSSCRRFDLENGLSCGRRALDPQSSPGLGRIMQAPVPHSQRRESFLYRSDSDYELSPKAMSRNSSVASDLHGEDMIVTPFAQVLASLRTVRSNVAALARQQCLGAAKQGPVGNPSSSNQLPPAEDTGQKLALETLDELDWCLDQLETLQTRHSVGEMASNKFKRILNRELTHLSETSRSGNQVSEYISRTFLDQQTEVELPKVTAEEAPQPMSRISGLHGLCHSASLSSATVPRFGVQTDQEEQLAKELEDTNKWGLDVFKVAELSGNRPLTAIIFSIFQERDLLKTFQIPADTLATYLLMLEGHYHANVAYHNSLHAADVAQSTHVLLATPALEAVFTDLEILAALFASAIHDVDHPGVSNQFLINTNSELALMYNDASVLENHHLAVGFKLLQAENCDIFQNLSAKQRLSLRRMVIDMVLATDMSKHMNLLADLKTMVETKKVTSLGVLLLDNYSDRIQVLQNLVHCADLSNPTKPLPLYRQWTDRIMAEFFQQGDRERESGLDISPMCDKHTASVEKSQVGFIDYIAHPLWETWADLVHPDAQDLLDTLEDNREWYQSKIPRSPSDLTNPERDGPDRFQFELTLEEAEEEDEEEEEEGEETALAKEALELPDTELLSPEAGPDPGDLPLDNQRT
Sequence of 3',5'-cyclic-AMP phosphodiesterase 4A (P27815 whole entry): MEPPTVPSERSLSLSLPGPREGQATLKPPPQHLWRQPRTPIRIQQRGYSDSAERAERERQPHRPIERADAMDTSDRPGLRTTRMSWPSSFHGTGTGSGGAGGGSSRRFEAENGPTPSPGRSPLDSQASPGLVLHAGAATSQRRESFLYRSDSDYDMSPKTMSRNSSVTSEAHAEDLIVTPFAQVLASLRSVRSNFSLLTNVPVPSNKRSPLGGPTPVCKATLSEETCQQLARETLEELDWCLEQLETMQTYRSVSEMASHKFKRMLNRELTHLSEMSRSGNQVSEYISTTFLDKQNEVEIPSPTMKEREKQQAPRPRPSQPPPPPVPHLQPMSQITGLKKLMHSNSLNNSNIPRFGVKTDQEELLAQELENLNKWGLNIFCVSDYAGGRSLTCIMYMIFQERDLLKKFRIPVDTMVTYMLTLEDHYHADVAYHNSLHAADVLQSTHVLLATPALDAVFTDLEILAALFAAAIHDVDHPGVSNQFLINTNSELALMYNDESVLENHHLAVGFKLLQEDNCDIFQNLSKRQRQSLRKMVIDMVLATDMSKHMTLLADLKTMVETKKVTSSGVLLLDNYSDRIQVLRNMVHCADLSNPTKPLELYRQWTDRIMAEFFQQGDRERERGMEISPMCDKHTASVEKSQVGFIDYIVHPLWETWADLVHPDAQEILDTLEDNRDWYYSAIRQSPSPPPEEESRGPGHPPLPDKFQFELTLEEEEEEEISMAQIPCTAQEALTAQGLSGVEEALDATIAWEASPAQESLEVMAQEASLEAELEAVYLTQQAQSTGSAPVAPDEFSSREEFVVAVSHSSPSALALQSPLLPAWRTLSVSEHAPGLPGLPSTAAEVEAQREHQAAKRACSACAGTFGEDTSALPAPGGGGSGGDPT

In the case of `CC(=O)N(c1ccc(S(C)(=O)=O)cc1)C(C)c1cccc(-c2cc(C(C)(C)S(C)(=O)=O)cc3cccnc23)c1` (configuration not stated), the IC50 worked out at 4.2 nM in data set [1]; 10 nM in data set [2]; 41 nM in [3]; 6.7 nM in [4]; 2000 nM in [5].
The matching figures for `CC(c1cccc(-c2cc(C(C)(C)S(C)(=O)=O)cc3cccnc23)c1)N(C(=O)c1cccnc1)c1ccc(S(C)(=O)=O)cc1` (configuration not stated): 0.7 nM, 2.1 nM, 14 nM, 1.7 nM and 210 nM.
`Cc1cc(C(=O)N(Cc2cccc(-c3cc(C(C)(C)C#N)cc4cccnc34)c2)c2ccc(S(C)(=O)=O)cc2)no1`: the IC50 was determined as 0.1 nM in data set [1]; 0.3 nM in [2]; 0.9 nM in data set [3]; 0.1 nM in data set [4]; 30 nM in [5].
Consider `CC(C)NC(=O)N(Cc1cc(-c2cc(C(C)(C)S(C)(=O)=O)cc3cccnc23)ccc1Cl)c1ccc(S(C)(=O)=O)cc1`, for which the IC50 amounted to 4.4 nM in data set [1]; 15 nM in data set [2]; 70 nM in data set [3]; 10 nM in data set [4]; 4000 nM in data set [5].
On to `CC(C)NC(=O)N(c1ccc(S(C)(=O)=O)cc1)C(C)c1cccc(-c2cc(C(C)(C)S(C)(=O)=O)cc3cccnc23)c1` (configuration not stated), for which the IC50 turned out to be 0.7 nM in data set [1]; 1.8 nM in data set [2]; 25 nM in data set [3]; 1.9 nM in [4]; 400 nM in data set [5].
The matching figures for `CC(C)(c1cc(-c2cccc(C(=O)Nc3ccccc3)c2)c2ncccc2c1)S(C)(=O)=O`: 5.9 nM, 16 nM, 97 nM, 10 nM and 7000 nM.
The matching figures for `CC(C)(c1cc(-c2cccc(C(=O)Nc3c(Cl)cncc3Cl)c2)c2ncccc2c1)S(C)(=O)=O`: 0.4 nM, 0.6 nM, 5.5 nM, 0.7 nM and 90 nM.
In the case of `CC(C)NC(=O)N(Cc1cc(-c2cc(C(C)(C)S(C)(=O)=O)cc3cccnc23)ccc1F)c1ccc(S(C)(=O)=O)cc1`, the IC50 in data set [1] came to 0.3 nM; in [2], 0.6 nM; in [3], 6.4 nM; in [4], 0.8 nM; in data set [5] it was 50 nM.
The like results for `CC(C)(c1cc(-c2cccc(C(=O)Nc3ccc(S(C)(=O)=O)cc3)c2)c2ncccc2c1)S(C)(=O)=O` were, in that order, 0.5 nM, 3.5 nM, 26 nM, 2.8 nM and 140 nM.
The like results for `CC(C)(c1cc(-c2cccc(NC(=O)c3ccc(S(C)(=O)=O)cc3)c2)c2ncccc2c1)S(C)(=O)=O` were, in that order, 1.2 nM, 1.7 nM, 10.6 nM, 2.3 nM and 1000 nM.
Regarding `CC(C)OC(=O)N(Cc1cccc(-c2cc(C(C)(C)C#N)cc3cccnc23)c1)c1ccc(S(C)(=O)=O)cc1`, the IC50 in data set [1] is 0.3 nM; in data set [2], 0.3 nM; in [3], 4.2 nM; in data set [4], 0.3 nM; in data set [5] it was 80 nM.
Take `CC(C)(c1cc(-c2cccc(C(N)=O)c2)c2ncccc2c1)S(C)(=O)=O`: the IC50 was found to be 40 nM in data set [1], 78 nM in [2], 490 nM in data set [3] and 74 nM in [4].
With `CC(C)NC(=O)N(Cc1cccc(-c2cc(C(C)(C)S(C)(=O)=O)cc3cccnc23)c1)c1ccc(S(C)(=O)=O)cc1`, the IC50 in data set [1] was determined as 0.1 nM; in [2], 0.1 nM; in data set [3] it was 1.7 nM; in data set [4], 0.1 nM; in data set [5], 100 nM.
Consider `CC(C)(C#N)c1cc(-c2cccc(CN(Cc3ccc(F)cc3)c3ccc(S(C)(=O)=O)cc3)c2)c2ncccc2c1`, for which the IC50 in data set [1] came to 0.1 nM; in data set [2], 1 nM; in data set [3] it was 9.5 nM; in [4] it was 0.5 nM; in data set [5] it was 1800 nM.
`CC(c1cccc(-c2cc(C(C)(C)S(C)(=O)=O)cc3cccnc23)c1)N(C(=O)C1CC1)c1ccc(S(C)(=O)=O)cc1` (configuration not stated): the IC50 in [1] stood at 0.6 nM; in data set [2], 1.6 nM; in data set [3], 17 nM; in [4] it was 1.4 nM; in [5] it was 800 nM.
The matching figures for `CC(C)(C#N)c1cc(-c2cccc(CN(C(=O)Nc3ccccc3)c3ccc(S(C)(=O)=O)cc3)c2)c2ncccc2c1`: 0.03 nM, 0.1 nM, 0.05 nM, 0.1 nM and 40 nM.
The matching figures for `CC(c1cccc(-c2cc(C(C)(C)S(C)(=O)=O)cc3cccnc23)c1)N(C(=O)c1ccc(C(C)(C)O)cc1)c1ccc(S(C)(=O)=O)cc1` (configuration not stated): 0.4 nM, 1.5 nM, 5.9 nM, 0.5 nM and 270 nM.
In the case of `CC(C)NC(=O)N(Cc1cccc(-c2cc(C(C)(C)C#N)cc3cccnc23)c1)c1ccc(S(C)(=O)=O)cc1`, the IC50 was found to be 0.1 nM in data set [1]; 0.1 nM in [2]; 1.7 nM in [3]; 0.1 nM in [4]; 140 nM in [5].
Regarding `CC(C)(C#N)c1cc(-c2cccc(CN(C(=O)c3ccccc3)c3ccc(S(C)(=O)=O)cc3)c2)c2ncccc2c1`, the IC50 amounted to 0.1 nM in data set [1]; 0.2 nM in data set [2]; 1 nM in data set [3]; 0.3 nM in data set [4]; 80 nM in data set [5].
Regarding `CC(C)(c1cc(-c2cccc(C(=O)Nc3ccncc3)c2)c2ncccc2c1)S(C)(=O)=O`, the IC50 in [1] worked out at 0.9 nM; in data set [2], 3.1 nM; in [3], 17 nM; in [4] it was 3 nM; in [5], 200 nM.
As for `CC(c1cccc(-c2cc(C(C)(C)S(C)(=O)=O)cc3cccnc23)c1)N(C(=O)c1ccc(F)cc1)c1ccc(S(C)(=O)=O)cc1` (racemic), the values for the half-life in [6] and in [8] were 7 h and 2 h, respectively. The bioavailability in data set [7] is 67%; in [10] it was 98%. Besides, the IC50 came to 0.6 nM in data set [1]; 2.3 nM in data set [2]; 12 nM in data set [3]; 1.8 nM in data set [4]; 560 nM in data set [5]. For the same molecule, the Cmax in data set [9] turned out to be 2700 nM; in [12] it was 900 nM. The same molecule showed an inhibition in vivo at 0.03 mg/kg in [11] of 74%.
For `CC(c1cccc(-c2cc(C(C)(C)S(C)(=O)=O)cc3cccnc23)c1)N(C(=O)c1ccc(F)cc1)c1ccc(S(C)(=O)=O)cc1` (single isomer, unassigned; enantiomer A), the IC50 in data set [1] is 5.8 nM; in data set [2], 15 nM; in data set [3], 51 nM; in data set [4], 7 nM; in [5], 1400 nM.
As for `CC(c1cccc(-c2cc(C(C)(C)S(C)(=O)=O)cc3cccnc23)c1)N(C(=O)c1ccc(F)cc1)c1ccc(S(C)(=O)=O)cc1` (single isomer, unassigned; enantiomer B), the IC50 in data set [1] turned out to be 0.5 nM; in data set [2] it was 1.8 nM; in data set [3], 7.5 nM; in [4], 0.7 nM; in data set [5], 250 nM.
On to `COc1ccc([C@H](Cc2ccncc2)c2ccccc2)cc1OC1CCCC1` [CDP840], for which the inhibition in vivo at 1 mg/kg in data set [13] was found to be 55%.
